Assay results as given in patent US4049808A, “2-Phenyl ethyl morpholine compounds” (Imperial Chemical Industries Limited, priority 1974, dated 1977).

What was measured:
[1] = Oral LD50 in mice; settings: mouse, in vivo
[2] = tested on: reserpine-induced hypothermia; assay: Reversal of reserpine-induced hypothermia in mice (RHL test); format: in vivo; settings: reserpine 2 mg./kg. s.c., T0 to T4 (4 hours)
Protocol: The reversal of reserpine-induced hypothermia, known as the RHL test, is carried out as follows:
Mice are kept in a constant temperature room maintained at 21 ± 1° C. Each member of groups of 4 mice is given reserpine (2 mg. of base per kg. bodyweight, given subcutaneously as the acetate). Seventeen hours later the oesophageal temperature (T0) of each mouse is recorded by means of an orally-inserted probe coupled to an electric thermometer which is calibrated in degrees Centrigrade and which can be read to 0.1° C. Immediately after the temperature measurement the mice are dosed orally with the test compound, or with imipramine, each mouse in a group of 4 being given the same substance, and the oesophageal temperatures are again recorded after 4 hours (T4). The compound under test is dosed at serial dilutions, e.g. 100, 30, 10, 3, 1, 0.3, 0.1 mg./kg. Imipramine is used as the control. […] At 1 mg./kg. it produces an average rise of 1.7° C. A test compound which at a certain does level gives a rise in temperature equal to or greater than that given by 1 mg./kg. of imipramine, dosed to a different set of mice on the same day, is adjudged "active" at that dose.

| Structure (SMILES) | LD50 [1] [mg/kg] | average rise in the temperature of a reserpinised mouse ([2]; imipramine 1 mg./kg. oral) [°C] | average rise in the temperature of a reserpinised mouse ([2]; imipramine 3 mg./kg. oral) [°C] |
| --- | --- | --- | --- |
| Cc1ccccc1CCC1CNCCO1 (stereo not drawn) [2-[β-(2-methylphenyl)ethyl]morpholine] | 550 | – | – |
| c1ccc(Oc2ccccc2CCC2CNCCO2)cc1 (stereo not drawn) [2-[β-(2-phenoxyphenyl)ethyl]morpholine] | 1000 | – | – |
| CN(C)CCCN1c2ccccc2CCc2ccccc21 [imipramine] | – | 1.7 | 3 |
